{
  "source": "patent US20020071842A1",
  "about": "“Soluble CD1 compositions and uses thereof” (priority 2000, published 2002)",
  "system": "human CD1d-restricted T cell clones",
  "assay": "Flow cytometric staining with lipid treated multimerized CD1d-Fc aggregates",
  "type": "cell-based",
  "details": "flow cytometry; human CD1d-Fc/Alexa 488 protein A aggregate, 40:1 lipid to fusion protein, compared with DMSO alone",
  "protocol": "To facilitate binding to CD1 specific T cells for detection by flow cytometry, a highly multimerized form of the CD1d fusion protein was formed using fluorescently labeled protein A molecules. Protein A molecules spontaneously associate in solution at neutral pH with immunoglobulin Fc regions, forming complexes containing four Fc molecules and two protein A molecules (4+2 complexes, reference 2). The human CD1d-Fc fusion protein was incubated with Alexa 488 dye labeled protein A, and the 4+2 complexes purified by size exclusion chromatography on a Pharmacia Superose 6 column using PBS pH 7.2 as a running buffer. The purified 4+2 aggregates were concentrated to 100 μg/ml with ovalbumin as a carrier protein. The CD1d-Fc aggregate was then pre-incubated for 24 to 48 hours at 37° C. with antigenic glycolipids dissolved in DMSO at a 40:1 molar ratio of lipid to fusion protein, or with an equivalent volume of DMSO alone as a negative control. The T cell staining was performed at room temperature or 4° C. for 20 min, at a concentration of 40 μg/ml of the lipid or control treated CD1d-Fc aggregate.\nTo facilitate binding to CD1 specific T cells for detection by flow cytometry, a highly multimerized form of the CD1d fusion protein is formed using fluorescently labeled protein A molecules. Protein A molecules spontaneously associate in solution at neutral pH with immunoglobulin Fc regions, forming complexes containing four Fc molecules and two protein A molecules (4+2 complexes, Langone, J.J. et al, Molec. and Cell. Biochem, 65(2):159-70 (1985)). The human CD1d-Fc fusion protein was incubated with Alexa 488-dye labeled protein A, and the 4+2 complexes purified by size exclusion chromatography on a Phannacia Superose 6 column using PBS pH 7.2 as a running buffer. The purified 4+2 aggregates are concentrated to 100 μg/ml with ovalbumin as a carrier protein. The CD1d-Fc aggregate is then pre-incubated for 24 to 48 hours at 37° C. with antigenic glycolipids dissolved in DMSO at a 40:1 molar ratio of lipid to fusion protein, or with an equivalent volume of DMSO alone as a negative control. The T cell staining is performed at room temperature or 4° C. for 20 min, at a concentration of 40 μg/ml of the lipid or control treated CD1d-Fc aggregate.\nFlow cytometric analysis of a CD1d-restricted T cell clone stained with the multimerized CD1d-Fc fusion protein (abbreviated as “hd(8)-fl”) was performed as follows. Staining with CD1d-Fc treated with lipid antigens dissolved in DMSO was compared with CD1d-Fc treated with DMSO alone as a negative control. The specific lipid antigen used were: aGalCer is α-galactosyl ceramide (KRN7000); aGlcCer is α-glucosyl ceramide; aManCer is α-mannosyl ceramide; bGalCer is β-galactosyl ceramide; Cer is ceramide (acylphytosphingolipid).\nFlow cytometric analysis of a series of human T cell clones stained with the multimerized CD1d-Fc fusion protein, treated with α-GalCer or DMSO alone also was performed, including staining of two different CD1d-restricted (“NKT”) T cell clones DN2.B9 and DN1.10B3. Four other T cell clones that are not CD1d-restricted also were stained.",
  "data": [
    {"substance": "α-glucosyl ceramide [α-GlcCer]", "values": [
      {"measurement": "staining of CD1d-restricted T cell clones by lipid treated CD1d-Fc aggregate", "result": "positive staining"}
    ]},
    {"substance": "α-mannosyl ceramide [α-ManCer]", "values": [
      {"measurement": "staining of CD1d-restricted T cell clones by lipid treated CD1d-Fc aggregate", "result": "did not stain above background levels"}
    ]}
  ]
}
